Laboratory results: the supplement of paper PMC11061612

What was measured:
Experiment in all cases: combination Emax (second highest fraction inhibited in the dose matrix, 72 h); higher = more inhibition; extreme values may be limits of the assay
[1] = test system: RPMI-8402 (T-Lymphoblastic Leukemia)
Summary of the method: (§1)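 Cell lines in DMEM/F12 or RPMI with 10% FBS were plated in 1536-well plates, held 24 hours at 37°C, 5% CO2, then given two-drug dose matrices for 72 hours (DMSO typically 0.2%). Viability was read by CellTiter-Glo 2.0 luminescence and scaled as inhibition from 0 (vehicle wells) to 1 (blank wells). Combination Emax is the second-highest inhibition in the matrix; Bliss excess is observed combination effect minus expected EA + EB − EA·EB, EA and EB being single-agent effects.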

[2] = test system: SCC90 (Head and Neck Carcinoma)
Summary of the method: as §1

[3] = test system: HT-3 (Cervical Carcinoma)
Summary of the method: as §1

[4] = test system: BC-1 (B-Cell Non-Hodgkin's Lymphoma)
Summary of the method: as §1

[5] = test system: CAL-85-1 (Breast Carcinoma)
Summary of the method: as §1

[6] = test system: SBC-5 (Small Cell Lung Carcinoma)
Summary of the method: as §1

DK-MG (Glioblastoma) = test system: DK-MG (Glioblastoma)
Summary of the method: as §1

NCI-H2452 (Mesothelioma) = test system: NCI-H2452 (Mesothelioma)
Summary of the method: as §1

[7] = test system: NCI-H1648 (Lung Adenocarcinoma)
Summary of the method: as §1

[8] = test system: KNS-62 (Squamous Cell Lung Carcinoma)
Summary of the method: as §1

[9] = test system: JURL-MK1 (Chronic Myelogenous Leukemia)
Summary of the method: as §1

[10] = test system: NCI-H1975 (Lung Adenocarcinoma)
Summary of the method: as §1

[11] = test system: MRK-nu-1 (Breast Carcinoma)
Summary of the method: as §1

[12] = test system: OCI-M1 (Acute Myeloid Leukemia)
Summary of the method: as §1

[13] = test system: NCI-H835 (Other Solid Carcinomas)
Summary of the method: as §1

MG-63 (Osteosarcoma) = test system: MG-63 (Osteosarcoma)
Summary of the method: as §1

[14] = test system: GRANTA-519 (B-Cell Non-Hodgkin's Lymphoma)
Summary of the method: as §1

[15] = test system: ATN-1 (T-Lymphoblastic Leukemia)
Summary of the method: as §1

[16] = test system: NCI-H2170 (Squamous Cell Lung Carcinoma)
Summary of the method: as §1

[17] = test system: IGROV-1 (Ovarian Carcinoma)
Summary of the method: as §1

Compound	combination Emax [1]	combination Emax [2]	combination Emax [3]	combination Emax [4]	combination Emax [5]	combination Emax [6]	combination Emax (DK-MG (Glioblastoma))	combination Emax (NCI-H2452 (Mesothelioma))	combination Emax [7]	combination Emax [8]	combination Emax [9]	combination Emax [10]	combination Emax [11]	combination Emax [12]	combination Emax [13]	combination Emax (MG-63 (Osteosarcoma))	combination Emax [14]	combination Emax [15]	combination Emax [16]	combination Emax [17]
NC1(C(=O)N[C@@H](CCO)c2ccc(Cl)cc2)CCN(c2ncnc3[nH]ccc23)CC1 [Capivasertib] + Cn1cnc2c(F)c(Nc3ccc(Br)cc3Cl)c(C(=O)NOCCO)cc21 [Selumetinib] (first compound max 10 µM, 7x7, partner max 10 µM)	0.633	0.992	0.281	0.829	0.411	0.627	0.621	0.344	0.893	0.914	1	0.829	0.4	0.926	0.41	0.793	0.205	0.77	0.653	0.882
Cn1cnc2c(F)c(Nc3ccc(Br)cc3Cl)c(C(=O)NOCCO)cc21 [Selumetinib] + CC(C)n1c(=O)n(C)c2cnc3cc(F)c(-c4ccc(OCCCN5CCCCC5)nc4)cc3c21 [AZD1390] (first compound max 10 µM, 7x7, partner max 0.3 µM)	0.0871	0.774	0.105	0.328	0.44	0.0866	0.323	0.262	0.512	0.439	0.973	0.342	0.35	0.749	0.0782	0.305	0.095	0.172	0.0988	0.618
COc1nnc2ccc(N3CCC(c4ccc(OCCN5CCN(C)C(=O)[C@H]5C)cc4)CC3)nn12 [AZD5153] + CC1(C)CCC(CN2CCN(c3ccc(C(=O)NS(=O)(=O)c4ccc(NCC5CCOCC5)c([N+](=O)[O-])c4)c(Oc4cnc5[nH]ccc5c4)c3)CC2)=C(c2ccc(Cl)cc2)C1 [Venetoclax] (first compound max 1 µM, 7x7, partner max 1 µM)	0.791	0.533	0.278	0.935	0.674	0.518	0.539	0.411	0.68	0.519	0.873	0.667	0.468	1	0.372	0.646	0.69	0.516	0.484	0.669
COc1nnc2ccc(N3CCC(c4ccc(OCCN5CCN(C)C(=O)[C@H]5C)cc4)CC3)nn12 [AZD5153] + Cn1cnc2c(F)c(Nc3ccc(Br)cc3Cl)c(C(=O)NOCCO)cc21 [Selumetinib] (first compound max 1 µM, 7x7, partner max 10 µM)	0.774	0.916	0.399	0.945	0.687	0.662	0.652	0.446	0.88	0.647	1	0.72	0.306	1	0.446	0.689	0.206	0.508	0.405	0.736
NC1(C(=O)N[C@@H](CCO)c2ccc(Cl)cc2)CCN(c2ncnc3[nH]ccc23)CC1 [Capivasertib] + CC(C)n1c(=O)n(C)c2cnc3cc(F)c(-c4ccc(OCCCN5CCCCC5)nc4)cc3c21 [AZD1390] (first compound max 10 µM, 7x7, partner max 0.3 µM)	0.623	0.825	0.11	0.761	0.266	0.281	0.454	0.399	0.585	0.547	0.366	0.604	0.576	0.287	0.403	0.813	0.196	0.778	0.54	0.799
COc1nnc2ccc(N3CCC(c4ccc(OCCN5CCN(C)C(=O)[C@H]5C)cc4)CC3)nn12 [AZD5153] + CCN(CCO)CCCOc1ccc2c(Nc3cc(CC(=O)Nc4cccc(F)c4)[nH]n3)ncnc2c1 [AZD2811] (first compound max 1 µM, 7x7, partner max 1 µM)	0.999	0.452	0.332	0.943	0.657	0.718	0.614	0.433	0.669	0.596	0.898	0.781	0.561	1	0.384	0.694	0.56	0.734	0.717	0.618
COc1cccc(OCCCN)c1-c1cc(Nc2cnc(C#N)cn2)n[nH]1 [Prexasertib] + Cc1cc2ncnn2cc1Nc1ncc2c(n1)n(C1CCOCC1)c(=O)n2C [AZD7648] (first compound max 1 µM, 7x7, partner max 10 µM)	1	0.755	0.388	0.991	0.477	0.901	0.312	0.714	0.762	0.601	1	0.409	0.803	0.948	0.36	0.921	0.852	1	0.88	0.76
COc1cccc(OCCCN)c1-c1cc(Nc2cnc(C#N)cn2)n[nH]1 [Prexasertib] + C=CCn1c(=O)c2cnc(Nc3ccc(N4CCN(C)CC4)cc3)nc2n1-c1cccc(C(C)(C)O)n1 [AZD1775] (first compound max 1 µM, partner max 1 µM)	1	0.94	0.75	1	0.716	0.94	0.387	0.832	0.83	0.684	1	0.516	0.942	0.969	0.684	0.972	0.867	1	0.95	0.788
NC1(C(=O)N[C@@H](CCO)c2ccc(Cl)cc2)CCN(c2ncnc3[nH]ccc23)CC1 [Capivasertib] + COc1nnc2ccc(N3CCC(c4ccc(OCCN5CCN(C)C(=O)[C@H]5C)cc4)CC3)nn12 [AZD5153] (first compound max 10 µM, 7x7, partner max 1 µM)	0.991	0.986	0.308	0.977	0.434	0.563	0.611	0.456	0.753	0.809	0.993	0.652	0.587	1	0.944	0.86	0.317	0.654	0.594	0.804
COc1nnc2ccc(N3CCC(c4ccc(OCCN5CCN(C)C(=O)[C@H]5C)cc4)CC3)nn12 [AZD5153] + Cc1c2c(nn1C)CSCc1cc(n(C)n1)CSc1cc(c3ccccc3c1)OCCCc1c(C(=O)O)n(C)c3c-2c(Cl)ccc13 [AZD5991] (first compound max 1 µM, 7x7, partner max 1 µM)	1	0.9	0.911	1	0.779	0.988	0.633	0.53	0.818	0.503	0.927	0.724	1	1	0.599	0.697	0.314	0.999	0.636	0.889
CC(=O)c1c(C)c2cnc(Nc3ccc(N4CCNCC4)cn3)nc2n(C2CCCC2)c1=O [Palbociclib] + CC1(C)CCC(CN2CCN(c3ccc(C(=O)NS(=O)(=O)c4ccc(NCC5CCOCC5)c([N+](=O)[O-])c4)c(Oc4cnc5[nH]ccc5c4)c3)CC2)=C(c2ccc(Cl)cc2)C1 [Venetoclax] (first compound max 10 µM, 7x7, partner max 1 µM)	0.972	0.155	0.116	0.917	0.0543	0.23	0.286	0.282	0.325	0.268	0.661	0.423	0.37	0.499	0.255	0.345	0.541	0.608	0.362	0.537
COc1cccc(OCCCN)c1-c1cc(Nc2cnc(C#N)cn2)n[nH]1 [Prexasertib] + C[C@@H]1COCCN1C2=NC(=NC(=C2)C3(CC3)[S@](=N)(=O)C)C4=C5C=CNC5=NC=C4 [AZD6738] (first compound max 1 µM, 7x7, partner max 10 µM)	1	0.679	0.679	0.996	0.477	0.938	0.216	0.672	0.847	0.555	1	0.426	0.746	0.956	0.372	0.866	0.856	1	0.847	0.754
Cn1cnc2c(F)c(Nc3ccc(Br)cc3Cl)c(C(=O)NOCCO)cc21 [Selumetinib] + C=CCn1c(=O)c2cnc(Nc3ccc(N4CCN(C)CC4)cc3)nc2n1-c1cccc(C(C)(C)O)n1 [AZD1775] (first compound max 10 µM, partner max 1 µM)	1	0.825	0.195	0.993	0.474	0.514	0.408	0.547	0.621	0.434	1	0.492	0.0295	0.956	0.512	0.394	0.869	0.974	0.699	0.848
